“Also recorded” adds a separate entry of the source.
Columns and labels:
CD19+ B cells = experiment: Human B cell proliferation assay (3H-thymidine incorporation)
human PBMCs = experiment: Human PBMC cytokine response assay (IFN-γ and IFN-α in cell-free medium by ELISA), with or without cPLGA; assay type: cell-based;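 as to IFN-α (pg/ml) mean: 20 µg/mL compound for 24 hours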;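 as to IFN-γ (pg/ml) mean: 20 µg/mL compound for 24 hours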
[1] = B cells, donor 121, 2 μg/ml, Experiment B
[2] = B cells, donor 194, 2 μg/ml, Experiment B
[3] = Table 24, mean of donors 28234-28237
[4] = Table 25, mean of donors 28250-28253
[5] = mean of donors 110, 112, 119, 120, Table 14
[6] = mean of donors 28185-28188, Table 15
[7] = mean of donors 28218-28221, 20 μg/ml, 24 h

(5′-TCGTCGA-3′-HEG)2-glycerol-HEG-5′-TCGTCGA-3′ [Compound C-94]
cpm1 (CD19+ B cells; [1]): 11418 cpm
cpm2 (CD19+ B cells; [1]): 14406 cpm
cpm3 (CD19+ B cells; [1]): 11110 cpm
mean cpm (CD19+ B cells; B cells, donor 121 mean, 2 μg/ml, Experiment B): 12311 cpm
cpm1 (CD19+ B cells; [2]): 7361 cpm
cpm2 (CD19+ B cells; [2]): 8505 cpm
cpm3 (CD19+ B cells; [2]): 5349 cpm
mean cpm (CD19+ B cells; B cells, donor 194 mean, 2 μg/ml, Experiment B): 7072 cpm
mean of both (CD19+ B cells; B cells, mean of donors 121 and 194, 2 μg/ml, Experiment B): 9692 cpm
B cell proliferation (FIG. 11), in words (CD19+ B cells; purified human B cells, 5 μg/ml, 96 h): induce B cells to proliferate
IFN-α induction (FIG. 10), in words (human PBMCs; PBMCs from 8 donors, 20 μg/ml, 24 h): induce high levels of IFN-α
IFN-α (human PBMCs; Table 11, donor 28042): 302 pg/mL
IFN-γ (human PBMCs; Table 11, donor 28042): 443 pg/mL
IFN-α (human PBMCs; Table 11, donor 28043): 252 pg/mL
IFN-γ (human PBMCs; Table 11, donor 28043): 198 pg/mL
IFN-α (human PBMCs; Table 11, donor 28044): 664 pg/mL
IFN-γ (human PBMCs; Table 11, donor 28044): 1417 pg/mL
IFN-α (human PBMCs; Table 11, donor 28045): 1855 pg/mL
IFN-γ (human PBMCs; Table 11, donor 28045): 888 pg/mL
IFN-α mean (human PBMCs; Table 11, mean of donors): 768 pg/mL
IFN-γ mean (human PBMCs; Table 11, mean of donors): 736 pg/mL
IFN-α (human PBMCs; Table 24, donor 28234): 16 pg/mL
IFN-γ (human PBMCs; Table 24, donor 28234): 7 pg/mL
IFN-α (human PBMCs; Table 24, donor 28235): 118 pg/mL
IFN-γ (human PBMCs; Table 24, donor 28235): 161 pg/mL
IFN-α (human PBMCs; Table 24, donor 28236): 548 pg/mL
IFN-γ (human PBMCs; Table 24, donor 28236): 239 pg/mL
IFN-α (human PBMCs; Table 24, donor 28237): 3631 pg/mL
IFN-γ (human PBMCs; Table 24, donor 28237): 1116 pg/mL
IFN-α mean (human PBMCs; [3]): 1078 pg/mL
IFN-γ mean (human PBMCs; [3]): 381 pg/mL
IFN-a (human PBMCs; Table 25, donor 28250): 245 pg/mL
IFN-g (human PBMCs; Table 25, donor 28250, polynucleotides/spacers at amounts equivalent to the CIC, spacers alone 9 uM): 340 pg/mL
IFN-a (human PBMCs; Table 25, donor 28251): 645 pg/mL
IFN-g (human PBMCs; Table 25, donor 28251): 60 pg/mL
IFN-a (human PBMCs; Table 25, donor 28252): 323 pg/mL
IFN-g (human PBMCs; Table 25, donor 28252): 287 pg/mL
IFN-a (human PBMCs; Table 25, donor 28253): 1198 pg/mL
IFN-g (human PBMCs; Table 25, donor 28253): 128 pg/mL
IFN-a mean (human PBMCs; [4]): 603 pg/mL
IFN-g mean (human PBMCs; [4]): 204 pg/mL
IFN-α induced relative to linear CIC C-21 (human PBMCs; branched vs linear CIC with the same nucleic acid moieties): 4 fold
IFN-α (human PBMCs; donor 110, Table 14): 1608 pg/mL
IFN-γ (human PBMCs; donor 110, Table 14): 5168 pg/mL
IFN-α (human PBMCs; donor 112, Table 14): 144 pg/mL
IFN-γ (human PBMCs; donor 112, Table 14): 284 pg/mL
IFN-α (human PBMCs; donor 119, Table 14): 2610 pg/mL
IFN-γ (human PBMCs; donor 119, Table 14): 104 pg/mL
IFN-α (human PBMCs; donor 120, Table 14): 878 pg/mL
IFN-γ (human PBMCs; donor 120, Table 14): 120 pg/mL
IFN-a (human PBMCs; donor 28185, Table 15): 1895 pg/mL
IFN-g (human PBMCs; donor 28185, Table 15): 181 pg/mL
IFN-a (human PBMCs; donor 28186, Table 15): 239 pg/mL
IFN-g (human PBMCs; donor 28186, Table 15): 61 pg/mL
IFN-a (human PBMCs; donor 28187, Table 15): 136 pg/mL
IFN-g (human PBMCs; donor 28187, Table 15): 384 pg/mL
IFN-a (human PBMCs; donor 28188, Table 15): 13 pg/mL
IFN-g (human PBMCs; donor 28188, Table 15): 17 pg/mL
IFN-a (pg/ml) 28218 (human PBMCs; donor 28218, 20 μg/ml, 24 h): 32 pg/mL
IFN-g (pg/ml) 28218 (human PBMCs; donor 28218, 20 μg/ml, 24 h): 15 pg/mL
IFN-a (pg/ml) 28219 (human PBMCs; donor 28219, 20 μg/ml, 24 h): 167 pg/mL
IFN-g (pg/ml) 28219 (human PBMCs; donor 28219, 20 μg/ml, 24 h): 39 pg/mL
IFN-a (pg/ml) 28220 (human PBMCs; donor 28220, 20 μg/ml, 24 h): 633 pg/mL
IFN-g (pg/ml) 28220 (human PBMCs; donor 28220, 20 μg/ml, 24 h): 44 pg/mL
IFN-a (pg/ml) 28221 (human PBMCs; donor 28221, 20 μg/ml, 24 h): 412 pg/mL
IFN-g (pg/ml) 28221 (human PBMCs; donor 28221, 20 μg/ml, 24 h): 269 pg/mL
IFN-α (pg/ml) mean (human PBMCs; [5]): 1310 pg/mL
IFN-γ (pg/ml) mean (human PBMCs; [5]): 1419 pg/mL
IFN-a (pg/ml) mean (human PBMCs; [6]): 571 pg/mL
IFN-g (pg/ml) mean (human PBMCs; [6]): 161 pg/mL
IFN-a (pg/ml) mean (human PBMCs; [7]): 311 pg/mL
IFN-g (pg/ml) mean (human PBMCs; [7]): 92 pg/mL
IFN-a (pg/ml) ×2 (human PBMCs; mean ×2, Table 15): 1142 pg/mL
IFN-g (pg/ml) ×4 (human PBMCs; mean ×4, Table 15): 644 pg/mL
IFN-α induction, in words (human PBMCs; used alone): dramatically higher; also recorded: induced more IFN-α relative to linear CICs with HEG spacers; also recorded: HEG (C-94)>TEG (C-103)>C3 (C-104)=no linker (C-28)

From patent publication US9028845B2, “Chimeric immunomodulatory compounds and methods of using the same-IV” (Dynavax Technologies Corporation, priority 2001, dated 2015)
